Marks after values point to notes of the source that are not given here. Strand notation (5' to 3'): a small letter for the sugar, then the base; units joined by * are phosphorothioate-linked, units joined directly phosphodiester-linked; [ ] holds rarer units or linkages, { } end groups; capitals alone tell only the bases. k = constrained ethyl (cEt); [5mC] = 5-methylcytosine; d = 2'-deoxy (DNA)
Tested on: Yap1 mRNA
Assay: Antisense inhibition of human Yap1 in A-431 cells by cEt gapmers, single dose (Example 2, RTS4814)
Type: cell-based
Outline: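 Free uptake, 2,000 nM, ~48 h, A-431 at 5,000 cells/well. Readout: RT-qPCR (RTS4814), RIBOGREEN-normalized, % UTC. 16-mer 3-10-3 cEt gapmers, full PS backbone, all C as 5-methylcytosine.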

[1] = Table 18, A-431 cells, 5,000 cells per well, free uptake, 2,000 nM modified oligonucleotide, approx. 48 hours, RTS4814, normalized to RIBOGREEN, Yap1 mRNA as percent of untreated control
[2] = Table 24, Yap1 mRNA as percent of untreated control, 3-10-3 cEt gapmers targeting SEQ ID NO.: 1, and 2
[3] = A-431 cells, 5,000 cells per well, free uptake, 2,000 nM modified oligonucleotide, approx. 48 hours, RTS4814, normalized to RIBOGREEN, Table 4, asterisk (*) = targets amplicon region of primer probe set
[4] = Table 6, A-431 cells, 5,000 cells per well, free uptake, 2,000 nM modified oligonucleotide, approx. 48 hours, RTS4814, normalized to RIBOGREEN, Yap1 mRNA relative to untreated control cells
[5] = Table 22, Yap1 mRNA as percent of untreated control, 3-10-3 cEt gapmers, single dose
[6] = Table 5, A-431 cells, 5,000 cells per well, free uptake, 2,000 nM modified oligonucleotide, approx. 48 hours, RTS4814, normalized to RIBOGREEN, Yap1 mRNA relative to untreated control cells
[7] = Table 23, Yap1 mRNA as percent of untreated control, 3-10-3 cEt gapmers, single dose
[8] = Yap1 mRNA as percent of untreated control, A-431 cells, 3-10-3 cEt gapmers targeting SEQ ID NO.: 1, and 2, Table 30
[9] = Table 33, Yap1 mRNA, percent of untreated control, 3-10-3 cEt gapmers targeting SEQ ID NO.: 1, and 2
[10] = Table 21, Yap1 mRNA, percent of untreated control, 3-10-3 cEt gapmers targeting SEQ ID NO.: 1 and 2
[11] = Table 19, A-431 cells, 5,000 cells per well, free uptake, 2,000 nM modified oligonucleotide, approx. 48 hours, RTS4814, normalized to RIBOGREEN, Yap1 mRNA as percent of untreated control
[12] = Table 25, Yap1 mRNA as percent of untreated control, 3-10-3 cEt gapmers targeting SEQ ID NO.: 1, and 2

## 1074116 (antisense kG*kA*kG*dA*dA*d[5mC]*dT*dT*dT*dT*dT*d[5mC]*d[5mC]*k[5mC]*kT*k[5mC]) [Compound 1074116]
[1]
  YAP1 (% UTC): 112 % UTC

## 1074154 (antisense k[5mC]*k[5mC]*kA*d[5mC]*dG*dG*dG*d[5mC]*d[5mC]*dG*dA*dG*dG*kT*kG*kG) [Compound 1074154]
[2]
  YAP1 (% UTC): 100 % UTC

## 716355 (kG*kA*k[5mC]*dG*dG*d[5mC]*dT*dG*d[5mC]*dG*dG*dG*d[5mC]*k[5mC]*kG*kG; antisense) [Compound 716355]
[3]
  YAP1 (% UTC): 96 % UTC

## 716354 (kT*k[5mC]*kG*d[5mC]*dT*d[5mC]*dT*d[5mC]*dA*dG*dG*dG*d[5mC]*k[5mC]*kG*kG; antisense) [Compound 716354]
[4]
  YAP1 (% UTC): 114 % UTC

## 1074664 (antisense kG*k[5mC]*kA*dT*dT*d[5mC]*dT*dA*dG*dG*dT*dA*dG*kA*kA*kT) [Compound 1074664]
[5]
  YAP1 (% UTC): 49 % UTC

## 1075946 (kG*k[5mC]*kT*dG*dA*dA*dT*dA*dA*dG*dT*dA*dA*k[5mC]*kT*kT; antisense) [Compound 1075946]
[2]
  YAP1 (% UTC): 20 % UTC

## 716442 (kG*k[5mC]*kA*d[5mC]*dT*dA*dG*dG*dA*dG*dG*dA*dA*kA*kA*kG; antisense) [Compound 716442]
[3]
  YAP1 (% UTC): 63 % UTC

## 716353 (kG*k[5mC]*kA*dT*d[5mC]*d[5mC]*d[5mC]*d[5mC]*d[5mC]*dG*d[5mC]*d[5mC]*d[5mC]*k[5mC]*kG*kG; antisense) [Compound 716353]
[6]
  YAP1 (% UTC): 98 % UTC

## 1074436 (k[5mC]*kA*kT*dG*dA*dA*dG*d[5mC]*dA*dT*d[5mC]*dT*dG*kA*k[5mC]*kT; antisense) [Compound 1074436]
[1]
  YAP1 (% UTC): 31* % UTC

## 1074825 (kA*k[5mC]*k[5mC]*dT*dG*dA*dG*d[5mC]*dA*d[5mC]*dT*d[5mC]*dA*kT*kT*kT; antisense) [Compound 1074825]
[7]
  YAP1 (% UTC): 36 % UTC

## 1076010 (kT*kA*kT*dA*dA*dA*d[5mC]*dA*dA*dT*dA*dG*d[5mC]*kG*kA*kA; antisense) [Compound 1076010]
[2]
  YAP1 (% UTC): 44 % UTC

## 1074352 (antisense k[5mC]*kA*kT*dG*d[5mC]*dT*dT*dA*dG*dT*d[5mC]*d[5mC]*dA*k[5mC]*kT*kG) [compound 1074352]
[8]
  YAP1 (% UTC): 69 % UTC

## 1074858 (antisense kA*kA*k[5mC]*dA*dT*dT*dG*dG*dT*dA*d[5mC]*dT*dA*kT*kA*kT) [Compound 1074858]
[2]
  YAP1 (% UTC): 23 % UTC

## 1076329 (kA*kA*kT*dT*dA*dT*dA*d[5mC]*dT*dG*dG*d[5mC]*dT*kA*k[5mC]*kT; antisense) [Compound 1076329]
[7]
  YAP1 (% UTC): 14 % UTC

## 1075332 (kA*kG*k[5mC]*dG*dG*dG*dT*dT*dT*dA*dG*dA*dA*kT*kG*k[5mC]; antisense) [Compound 1075332]
[1]
  YAP1 (% UTC): 66 % UTC

## 1074161 (kG*kG*k[5mC]*dG*dA*dG*d[5mC]*dG*dA*dG*dG*dG*d[5mC]*kT*kA*k[5mC]; antisense) [compound 1074161]
Yap1 mRNA as percent of untreated control, A-431 cells, 3-10-3 cEt gapmers targeting SEQ ID NO.: 1, and 2, Table 31
  YAP1 (% UTC): 98 % UTC

## 1074323 (antisense k[5mC]*kA*kG*dG*dG*d[5mC]*dT*dA*dA*d[5mC]*dT*d[5mC]*d[5mC]*kT*kG*kA) [compound 1074323]
[9]
  YAP1 (% UTC): 116 % UTC

## 716555 (kT*kA*k[5mC]*dT*dT*dT*dT*dT*d[5mC]*dA*dA*dG*dA*kT*kA*k[5mC]; antisense) [Compound 716555]
[4]
  YAP1 (% UTC): 99 % UTC

## 1075144 (antisense kA*k[5mC]*k[5mC]*d[5mC]*dT*dA*dT*dA*dT*d[5mC]*d[5mC]*dT*dA*kT*kA*kT) [Compound 1075144]
[5]
  YAP1 (% UTC): 82 % UTC

## 1074439 (k[5mC]*kT*kG*dT*dG*dA*d[5mC]*dA*dT*dG*dA*dA*dG*k[5mC]*kA*kT; antisense) [Compound 1074439]
[10]
  YAP1 (% UTC): 2* % UTC

## 1074544 (k[5mC]*kT*k[5mC]*d[5mC]*d[5mC]*d[5mC]*dT*dA*dG*dG*d[5mC]*dA*d[5mC]*kT*kA*kT; antisense) [compound 1074544]
[8]
  YAP1 (% UTC): 34 % UTC

## 716397 (kG*kG*k[5mC]*d[5mC]*dT*d[5mC]*dA*d[5mC]*d[5mC]*dT*dG*d[5mC]*d[5mC]*kG*kA*kA; antisense) [Compound 716397]
[3]
  YAP1 (% UTC): 88 % UTC

## 1076391 (k[5mC]*kA*kA*dA*dT*dA*dT*dA*dG*dT*dT*dA*dG*k[5mC]*k[5mC]*kT; antisense) [Compound 1076391]
[10]
  YAP1 (% UTC): 22 % UTC

## 1074437 (kA*k[5mC]*kA*dT*dG*dA*dA*dG*d[5mC]*dA*dT*d[5mC]*dT*kG*kA*k[5mC]; antisense) [Compound 1074437]
[11]
  YAP1 (% UTC): 4* % UTC

## 1074117 (antisense kG*k[5mC]*kG*d[5mC]*d[5mC]*dT*dG*dA*dG*dA*dA*d[5mC]*dT*kT*kT*kT) [Compound 1074117]
[11]
  YAP1 (% UTC): 87 % UTC

## 1074931 (antisense kG*kA*kG*dA*d[5mC]*dT*dA*dT*dA*d[5mC]*dA*dA*d[5mC]*kA*kG*kG) [compound 1074931]
[9]
  YAP1 (% UTC): 35 % UTC

## 1074949 (antisense kG*kT*kG*dA*dT*dT*dT*dT*dT*dT*d[5mC]*dT*dG*kA*kG*kT) [Compound 1074949]
[11]
  YAP1 (% UTC): 31 % UTC

## 1074698 (antisense kT*kA*kT*d[5mC]*dA*dA*dG*dG*dT*d[5mC]*d[5mC]*d[5mC]*d[5mC]*k[5mC]*kT*kA) [Compound 1074698]
[2]
  YAP1 (% UTC): 78 % UTC

## 1075018 (antisense k[5mC]*k[5mC]*kT*dT*dA*dA*dA*dG*dT*dG*dA*dT*dA*k[5mC]*kA*k[5mC]) [Compound 1075018]
[2]
  YAP1 (% UTC): 29 % UTC

## 1075624 (kA*kT*k[5mC]*dT*dA*dT*dA*dA*d[5mC]*d[5mC]*d[5mC]*dT*dT*kA*kT*kT; antisense) [Compound 1075624]
[5]
  YAP1 (% UTC): 91 % UTC

## 1074730 (antisense kT*kA*kT*d[5mC]*dA*d[5mC]*dA*dG*dT*dA*d[5mC]*dT*dG*k[5mC]*kT*kA) [Compound 1074730]
[2]
  YAP1 (% UTC): 46 % UTC

## 716519 (antisense kG*kT*kT*dT*dA*dT*dA*dA*dA*dG*dT*dT*d[5mC]*kT*k[5mC]*kT) [Compound 716519]
[4]
  YAP1 (% UTC): 57 % UTC

## 1075915 (kA*kA*kT*dT*dT*dA*dG*dG*dA*dT*dG*d[5mC]*d[5mC]*kT*kT*kT; antisense) [Compound 1075915]
[12]
  YAP1 (% UTC): 16 % UTC

## 1076240 (kA*kT*kT*dA*dA*dA*dA*dG*d[5mC]*dA*dA*dG*dG*kT*kG*k[5mC]; antisense) [compound 1076240]
[8]
  YAP1 (% UTC): 56 % UTC

## 1076211 (kA*kA*kT*dT*dT*dA*dT*dA*dT*dG*d[5mC]*dT*d[5mC]*k[5mC]*k[5mC]*kT; antisense) [compound 1076211]
[9]
  YAP1 (% UTC): 22 % UTC

## 1074471 (k[5mC]*k[5mC]*k[5mC]*d[5mC]*d[5mC]*d[5mC]*d[5mC]*dA*d[5mC]*d[5mC]*dG*dA*d[5mC]*k[5mC]*k[5mC]*kT; antisense) [Compound 1074471]
[10]
  YAP1 (% UTC): 69 % UTC

## 716356 (k[5mC]*kG*kA*dG*dG*dT*dG*dG*dA*dG*dA*dA*dG*k[5mC]*kG*kG; antisense) [Compound 716356]
[6]
  YAP1 (% UTC): 112 % UTC

## 1075371 (k[5mC]*kT*kG*d[5mC]*dA*dA*dA*dA*dG*dT*dT*d[5mC]*dT*kT*kA*k[5mC]; antisense) [Compound 1075371]
[12]
  YAP1 (% UTC): 90 % UTC

## 1075315 (antisense k[5mC]*kA*kT*dA*dA*d[5mC]*dT*dT*dG*dA*dT*dG*dA*k[5mC]*kT*k[5mC]) [compound 1075315]
[9]
  YAP1 (% UTC): 27 % UTC

## 1076324 (kG*k[5mC]*kT*d[5mC]*dA*dA*dA*dA*dG*dG*dT*d[5mC]*dT*k[5mC]*kT*k[5mC]; antisense) [Compound 1076324]
[1]
  YAP1 (% UTC): 13 % UTC

## 1075210 (antisense kG*kT*kA*dT*dT*dT*dT*dA*dA*d[5mC]*d[5mC]*dT*dA*kA*kA*k[5mC]) [Compound 1075210]
[2]
  YAP1 (% UTC): 100 % UTC

## 1074995 (antisense kA*kA*kA*dA*d[5mC]*dT*dA*dA*dA*dT*dG*dG*dA*k[5mC]*k[5mC]*kG) [compound 1074995]
[9]
  YAP1 (% UTC): 50 % UTC

## 1076422 (kG*kA*kA*dT*dT*dA*dT*dG*dA*d[5mC]*d[5mC]*dT*d[5mC]*k[5mC]*kA*kT; antisense) [Compound 1076422]
Table 20, Yap1 mRNA, percent of untreated control, 3-10-3 cEt gapmers targeting SEQ ID NO.: 1 and 2
  YAP1 (% UTC): 13 % UTC

## 1075940 (kA*k[5mC]*kT*d[5mC]*dA*dA*d[5mC]*dA*dA*d[5mC]*d[5mC]*d[5mC]*d[5mC]*kA*kA*kG; antisense) [Compound 1075940]
[1]
  YAP1 (% UTC): 54 % UTC

## 1074663 (antisense k[5mC]*kA*kT*dT*d[5mC]*dT*dA*dG*dG*dT*dA*dG*dA*kA*kT*kT) [Compound 1074663]
[10]
  YAP1 (% UTC): 79 % UTC
